Results from patent publication US20250009730A1 (priority 2021, published 2025).
Structures can show the parent of a compound that is named as a salt. Where two headings read alike, the source gives them in different places. Each block holds one compound with its values, some of them ahead of it.

What was measured:
[1] = biological target: T1, NR1/NR2B ionotropic receptors encoded by the human GRIN1/GRIN2B genes, expressed in HEK293 cells (Homo sapiens, UniProt Q05586+Q13224); assay: Syncropatch automated patch clamp on NR1/NR2B receptors in HEK293 cells, antagonist mode (co-applied with 2 μM glutamate and 50 μM glycine); type: cell-based; conditions: for inhibits glutamate and glycine activation of NR1/NR2B receptors in vitro: PCA and SSC measurements, conclusion in words; for NR1/NR2B PCA antagonist HillSlope: co-applied with 2 μM glutamate and 50 μM glycine
T1 sequence (Q13224 27-1484, other chains not shown): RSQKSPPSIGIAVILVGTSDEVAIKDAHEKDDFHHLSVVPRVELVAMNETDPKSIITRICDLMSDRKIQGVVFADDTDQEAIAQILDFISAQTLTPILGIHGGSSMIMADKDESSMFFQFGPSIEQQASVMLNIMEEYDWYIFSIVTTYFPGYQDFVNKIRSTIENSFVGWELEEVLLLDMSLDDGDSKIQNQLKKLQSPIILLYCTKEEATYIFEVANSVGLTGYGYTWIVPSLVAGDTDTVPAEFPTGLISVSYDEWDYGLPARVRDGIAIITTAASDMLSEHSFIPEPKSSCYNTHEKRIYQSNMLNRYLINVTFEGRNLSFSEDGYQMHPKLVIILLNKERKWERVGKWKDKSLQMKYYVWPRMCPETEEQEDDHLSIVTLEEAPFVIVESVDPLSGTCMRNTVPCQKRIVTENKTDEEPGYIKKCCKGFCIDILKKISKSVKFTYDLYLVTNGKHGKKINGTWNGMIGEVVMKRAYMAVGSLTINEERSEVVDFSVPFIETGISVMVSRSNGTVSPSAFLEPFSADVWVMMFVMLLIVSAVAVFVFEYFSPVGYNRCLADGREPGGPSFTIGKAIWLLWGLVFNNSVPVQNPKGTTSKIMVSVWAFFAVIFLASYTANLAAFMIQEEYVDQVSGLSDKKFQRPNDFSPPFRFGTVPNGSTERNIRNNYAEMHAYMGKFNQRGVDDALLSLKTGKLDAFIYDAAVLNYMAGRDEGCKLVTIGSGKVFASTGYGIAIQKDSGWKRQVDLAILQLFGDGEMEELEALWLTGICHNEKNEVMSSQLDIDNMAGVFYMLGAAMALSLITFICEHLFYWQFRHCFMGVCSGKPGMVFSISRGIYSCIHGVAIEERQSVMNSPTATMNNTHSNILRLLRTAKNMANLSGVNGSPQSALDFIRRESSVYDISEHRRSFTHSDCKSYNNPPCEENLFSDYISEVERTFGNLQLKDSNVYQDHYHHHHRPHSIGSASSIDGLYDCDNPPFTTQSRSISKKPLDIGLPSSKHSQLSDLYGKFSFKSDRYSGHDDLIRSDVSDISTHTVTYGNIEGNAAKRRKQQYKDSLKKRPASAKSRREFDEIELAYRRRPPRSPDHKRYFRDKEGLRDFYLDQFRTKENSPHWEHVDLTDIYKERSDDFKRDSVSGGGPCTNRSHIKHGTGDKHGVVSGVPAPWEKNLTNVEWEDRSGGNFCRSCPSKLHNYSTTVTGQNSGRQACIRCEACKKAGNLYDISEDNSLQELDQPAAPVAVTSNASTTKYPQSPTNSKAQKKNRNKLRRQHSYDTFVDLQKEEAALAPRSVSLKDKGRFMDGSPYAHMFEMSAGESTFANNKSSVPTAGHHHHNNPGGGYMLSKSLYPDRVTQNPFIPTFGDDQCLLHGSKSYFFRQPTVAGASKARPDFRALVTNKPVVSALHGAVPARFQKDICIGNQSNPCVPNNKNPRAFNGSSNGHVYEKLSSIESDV
Protocol: (§1) The following patch clamp study investigates these effects on NR1/NR2B ionotropic receptors encoded by the human GRIN1/GRIN2B genes, expressed in HEK293 cells. Compounds were evaluated for functional effects on these ion channel receptors.
(§2) The assay was carried out using an HTS electrophysiology-based approach with the Syncropatch 384pe automated patch clamp system (Nanion), while using HEK293 cells that have been transfected with human GRIN1/GRIN2B genes to express NR1/NR2B ionotropic receptors
(§3) HEK293 cells were transfected with the appropriate ion channel or receptor cDNA(s) encoding NR1 and NR2B. Stable transfectants were selected using the G418 and Zeocin-resistance genes incorporated into the expression plasmid. Selection pressure was maintained with G418 and Zeocin in the culture medium. Cells were cultured in Dulbecco's Modified Eagle Medium/Nutrient Mixture F-12 (D-MEM/F-12) supplemented with 10% fetal bovine serum, 100 U/ml penicillin G sodium, 100 ug/mL streptomycin sulfate, 100 ug/mL Zeocin, 5 ug/mL blasticidin and 500 ug/mL G418.
(§4) Before testing, cells in culture dishes were washed twice with DPBS solution. Immediately before testing, the cells were washed in HB-PS containing 10 mM CaCl2 to improve sealing.
(§5) Compounds were evaluated in 8-point concentration-response format (4 replicate wells/concentration). The compound formulations were loaded in e.g. a 384-well compound plate and placed in the Syncropatch plate well.
(§6) The agonist positive control (L-glutamate) was applied at eight (8) concentrations (0.03-100 μM; n=4, where n=the number of replicates) together with 50 μM glycine.
(§7) 2× concentration of test compounds and antagonist control was pre-applied 2 minutes before application of L-glutamate/glycine mixed with 1× concentration of test compound. Glutamate and glycine was applied to naive cells (n=4, where n=the number of replicate wells/concentration) via a multi-channel pipettor.
(§8) • a) Intracellular solution (mM): 50 mM CsCl, 90 mM CsF, 2 mM MgCl2, 5 mM EGTA, 10 mM HEPES. Adjust to pH 7.2 with CsOH. This solution was prepared in batches and stored refrigerated.
(§9) • a) Extracellular buffer was loaded into the multi holes plate wells (40 μL per well).
(§10) Activation was calculated in two ways based on the following measurements: • 1. peak current amplitudes, and • 2. current amplitude 4-5 seconds after agonist addition.
(§11) Data acquisition was performed via the […] and data was analyzed using Microsoft Excel™ (Microsoft™ Corp., Redmond, WA). Concentration-response data was filled to a Hill equation of the following form: […]
(§12) where Base is the response in the absence of test article (vehicle treatment), Max is the maximum response at high concentrations, xhalf is the EC50, or IC50, the concentration of test compound producing either half-maximal activation or inhibition, and rate is the Hill coefficient. Nonlinear least squares fits were made assuming a simple binding model. If appropriate, fits were weighted by the standard deviation. No assumptions about the fit parameters were made; the fit parameters were determined by algorithm. Raw reduced data was analyzed using Microsoft Excel Office 365 ProPlus (Microsoft™ Corp., Redmond, WA) and XLfit (Excel addon, Copyright© IDBS 2016).
Antagonist activity of test articles was examined after stimulation of receptors with 2 μM glutamate and 50 μM glycine in the presence of increasing concentrations of test articles. Two measurements were performed, first was a peak current amplitude and second was a steady state current between 4th and 6th seconds following agonist application.
as §1
HEK293 cells were transfected with the appropriate ion channel or receptor cDNA(s) encoding NR1 and NR2B.

[2] = biological target: T1, NR1/NR2B ionotropic receptors encoded by the human GRIN1/GRIN2B genes, expressed in HEK293 cells; assay: Syncropatch automated patch clamp on NR1/NR2B receptors in HEK293 cells, agonist mode; type: cell-based; conditions: for EC50 / NR1/NR2B PCA agonist EMAX: plus 50 μM glycine; for NR1/NR2B PCA agonist EMAX: relative to current produced by 100 μM glutamate (EMAX set as 100%)
Protocol: as §1, §2, §3, §4, §5, §6, §7, §8, §9, §10, §11, §12, §1
HEK293 cells were transfected with the appropriate ion channel or receptor cDNA(s) encoding NR1 and NR2B. Stable transfectants were selected using the G418 and Zeocin-resistance genes incorporated into the expression plasmid. Selection pressure was maintained with G418 and Zeocin in the culture medium.

[3] = biological target: NR1C and NR2B receptors over NR1C+NR2A receptors (Homo sapiens, UniProt Q05586+Q13224); conditions: cited from earlier work
Chain of NR1C and NR2B receptors over NR1C+NR2A receptors (Q13224 27-1484, other chains not shown): as above

[4] = system: cortical damage in a model of permanent focal ischemia; conditions: cited from earlier work
[5] = steady state current amplitude (SSC) table

SMILES: CC(C(O)c1ccc(O)cc1)N1CCC(Cc2ccccc2)CC1 (centres unmarked) [Ifenprodil pamoate]
inhibits glutamate and glycine activation of NR1/NR2B receptors in vitro [1]: comparable to ifenprodil tartrate | NR1/NR2B PCA antagonist HillSlope ([1]; peak current amplitude (PCA), listed as pamoate): 1.59 | NR1/NR2B PCA antagonist HillSlope ([1]; steady state current amplitude (SSC) table, listed as pamoate): 0.77

SMILES: CC(C(O)c1ccc(O)cc1)N1CCC(Cc2ccccc2)CC1 (centres unmarked) [Ifenprodil nicotinate]
NR1/NR2B PCA antagonist HillSlope ([1]; peak current amplitude (PCA), listed as nicotinate): 0.71 | NR1/NR2B PCA antagonist HillSlope ([1]; steady state current amplitude (SSC) table, listed as nicotinate): 0.71

SMILES: N[C@@H](CCC(=O)O)C(=O)[O-].O.[Na+] [Glutamate, L-Glutamic acid monosodium salt monohydrate]
NR1/NR2B PCA agonist HillSlope ([2]; peak current amplitude (PCA)): −0.86 | EC50 ([2]; peak current amplitude (PCA)): 3.03 µM | NR1/NR2B PCA agonist EMAX ([2]; peak current amplitude (PCA)): 100.00% | NR1/NR2B PCA agonist HillSlope [2, 5]: −0.95 | EC50 ([2]; steady state current amplitude (SSC) table, read-out: NR1/NR2B PCA agonist EC50): 0.82 µM | NR1/NR2B PCA agonist EMAX [2, 5]: 100.00%

SMILES: Cc1ccc(CC2(O)CCN(CCOc3ccc(O)cc3)CC2)cc1 [Ro 63-1908]
selectivity for the NR1C and NR2B receptors over NR1C+NR2A receptors [3]: 20,000 fold | neuroprotective effect against cortical damage [4]: dose-related neuroprotective effect

SMILES: CC(C(O)c1ccc(O)cc1)N1CCC(Cc2ccccc2)CC1.O=C(O)c1ccccc1 (centres unmarked) [Ifenprodil benzoate]
inhibits glutamate and glycine activation of NR1/NR2B receptors in vitro [1]: comparable to ifenprodil tartrate | NR1/NR2B PCA antagonist HillSlope ([1]; peak current amplitude (PCA)): 1.39 | NR1/NR2B PCA antagonist HillSlope [1, 5]: 1.25

SMILES: CC(C(O)c1ccc(O)cc1)N1CCC(Cc2ccccc2)CC1 (centres unmarked) [Ifenprodil fumarate]
NR1/NR2B PCA antagonist HillSlope ([1]; peak current amplitude (PCA), listed as fumarate): 0.79 | NR1/NR2B PCA antagonist HillSlope ([1]; steady state current amplitude (SSC) table, listed as fumarate): 0.61

NR1/NR2B PCA antagonist HillSlope ([1]; peak current amplitude (PCA)): 1.12 | NR1/NR2B PCA antagonist HillSlope [1, 5]: 1.08
SMILES: CC12CC3CC(C)(C1)CC(N)(C3)C2 [Memantine, memantine chloride, reference compound]

inhibits glutamate and glycine activation of NR1/NR2B receptors in vitro [1]: comparable to ifenprodil tartrate | NR1/NR2B PCA antagonist HillSlope ([1]; peak current amplitude (PCA)): 0.79 | NR1/NR2B PCA antagonist HillSlope [1, 5]: 0.86
SMILES: C[C@@H]([C@H](O)c1ccc(O)cc1)N1CCC(Cc2ccccc2)CC1 [Ifenprodil oleate]
